Entries after “also recorded” stand apart in the source; their conditions may differ.
Key:
[1] = test system: Rtt109; details: cited from earlier work
[2] = test system: H3K27ac levels in HEK293T and MCF7 cells; test: Cellular H3K27ac western blot; type: cell-based; details: 10 and 30 μM compound
Experimental: (§1) Cells were cultured in DMEM supplemented with 10% fetal bovine serum (Winsent), penicillin (100 U mL^−1), and streptomycin (100 µg mL^−1). Compounds dissolved in DMSO or matching DMSO-only controls were added to cells for indicated times. Compound effects in cells were determined as described[67] and are outlined below.
For western blot analyses, cells were lysed in lysis buffer (20 mM Tris–HCl, pH 8, 150 mM NaCl, 1 mM EDTA, 10 mM MgCl2, 0.5% Triton X-100 (v/v), 12.5 U mL^−1 benzonase (Sigma), complete EDTA-free protease inhibitor cocktail (Roche)). After 3 min incubation at RT, SDS was added to final 1% concentration (w/v). Total cell lysates were resolved in 4–12% Bis-Tris protein gels (Invitrogen) with MOPS buffer (Invitrogen) and transferred for 1.5 h (80 V) onto PVDF membrane (Millipore) in tris-glycine transfer buffer containing 20% methanol and 0.05% SDS. Blots were blocked for 1 h in blocking buffer (5% milk in 0.1% Tween 20/PBS) and incubated with respective primary antibodies: H3K27ac (1:1000, CST #8173), H3 (1:1000, Abcam #10799), p300 (1:2000, Bethyl #A300-358A), CBP (1:1000, Bethyl #A300-362A), actin (1:3000, Abcam #3280), α-tubulin (1:1000, 12G10 DHSB), and α-tubulin-K40ac (1:2000, Abcam #179484) in blocking buffer overnight at 4 °C. After five washes with 0.1% Tween 20/PBS, the blots were incubated with goat anti-rabbit IgG (IRDye 800-conjugated, LiCor #926-32211) and donkey anti-mouse IgG (IRDye 680-conjugated, LiCor #926-68072) antibodies (1:5000) in Odyssey Blocking Buffer (LiCor) for 1 h at RT and washed with 0.1% Tween 20/PBS. The signal was read on an Odyssey scanner (LiCor) at 800 and 700 nm. Representative uncropped images with molecular weight markers are provided (Supplementary Figs. 9, 12, 13).

[3] = target: 200 kinases; test: Expanded kinase profile (Cerep/Eurofins); type: biochemical; details: 10 μM compound
Experimental: Assays were performed using either homogeneous time-resolved fluorescence or LANCE® time-resolved-FRET formats (see cerep.fr for additional details). […] Reference control compounds were included in each assay.

[4] = test system: panel of proteases, kinases, and phosphatases; test: Pilot selectivity panel (Reaction Biology); type: biochemical; details: 10 µM compound
Experimental: (§2) Selectivity profiles vs. HATs, HDACs, SIRTs, HMTs, proteases, kinases, and phosphatases were performed by Reaction Biology Corporation (Malvern, PA; Fig. 3 and Supplementary Fig. 3). Percent activity was normalized to DMSO-only controls. Reference control compounds were included in each assay.
(§3) Relevant reaction procedures for each target class are briefly summarized (see reactionbiology.com for additional details). HATs: reaction buffer 50 mM Tris–HCl, pH 8.0, 50 mM NaCl, 0.1 mM EDTA, ± 1 mM DTT, 1 mM PMSF, 1% DMSO; substrate [^3H]-acetyl-CoA; reaction time 1 h; end-point measurement. […] HMTs: reaction buffer 50 mM Tris–HCl, pH 8.0, 0.01% Brij35, 1 mM EDTA, 1 mM DTT, 1 mM PMSF, 1% DMSO (EZH2); reaction buffer 50 mM Tris–HCl, pH 7.5, 5 mM EDTA, 0.01% Brij35, 5 mM DTT, 0.1 mM PMSF, 5% glycerol, 1% DMSO; 50 mM Tris–HCl, pH 8.5, 5 mM MgCl2, 50 mM NaCl, 0.01 Brij35, 1 mM DTT, 1% DMSO (G9a); methyl donor 1 μM S-Adenosyl-L-[methyl-^3H]-methionine; substrate 5 μM histone proteins or 0.05 mg mL^−1 nucleosomes; pre-incubation time 10–15 min; reaction time 0.5–1 h; end-point measurement. Caspases: reaction buffer 50 mM HEPES, pH 7.4, 1 M citrate, 100 mM NaCl, 0.01% CHAPS, 0.1 mM EDTA, 10 mM DTT; fluorogenic peptide substrate; pre-incubation time 10 min; reaction time 2 h; time-course measurement. Kinases: reaction buffer 20 mM HEPES, pH 7.5, 10 mM MgCl2, 1 mM EGTA, 0.02% Brij35, 0.02 mg mL^−1 BSA, 0.1 mM Na3VO4, 2 mM DTT, 1% DMSO; substrate [^33P]-ATP; reaction time 2 h; end-point measurement.

[5] = test system: MOZ; details: @ 10 µM; ref 5 (Supplementary References); cited from earlier work
[6] = test system: SAS; parameters: method as in ref 5 (Supplementary References); details: @ 10 µM; ref 5 (Supplementary References); cited from earlier work
[7] = target: T1, PCAF (Homo sapiens, UniProt Q92831); test: PCAF activity in presence and absence of DTT; type: biochemical; details: 10 and 100 μM compound
T1 construct: Reaction Biology Corporation (assays run by this contract lab)
T1 sequence (Q92831 whole entry, species assumed): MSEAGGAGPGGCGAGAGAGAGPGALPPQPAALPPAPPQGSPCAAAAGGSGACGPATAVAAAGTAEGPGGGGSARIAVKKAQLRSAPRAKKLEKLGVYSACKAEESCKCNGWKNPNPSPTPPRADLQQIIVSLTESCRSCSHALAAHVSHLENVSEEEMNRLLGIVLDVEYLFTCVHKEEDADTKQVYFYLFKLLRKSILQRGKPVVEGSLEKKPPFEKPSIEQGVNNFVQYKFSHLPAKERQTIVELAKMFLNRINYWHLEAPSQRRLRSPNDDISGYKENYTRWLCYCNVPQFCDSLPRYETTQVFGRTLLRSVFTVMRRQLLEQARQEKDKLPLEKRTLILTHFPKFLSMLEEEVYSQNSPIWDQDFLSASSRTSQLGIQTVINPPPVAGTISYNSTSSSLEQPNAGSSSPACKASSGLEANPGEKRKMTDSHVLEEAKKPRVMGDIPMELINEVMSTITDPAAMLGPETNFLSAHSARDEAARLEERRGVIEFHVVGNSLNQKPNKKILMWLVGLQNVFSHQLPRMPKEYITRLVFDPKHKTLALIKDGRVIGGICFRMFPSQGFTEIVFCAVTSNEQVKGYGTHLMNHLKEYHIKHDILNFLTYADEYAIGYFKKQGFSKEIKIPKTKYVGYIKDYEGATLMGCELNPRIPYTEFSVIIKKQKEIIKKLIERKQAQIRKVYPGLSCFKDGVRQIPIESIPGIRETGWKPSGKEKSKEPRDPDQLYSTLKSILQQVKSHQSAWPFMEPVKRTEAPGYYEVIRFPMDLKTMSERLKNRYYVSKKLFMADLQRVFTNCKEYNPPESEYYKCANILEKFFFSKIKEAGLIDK
Experimental: as §2
as §3, with “Kinases: reaction buffer 20 mM HEPES, pH 7.5, 10 mM MgCl2, 1 mM EGTA, 0.02% Brij35, 0.02 mg mL^−1 BSA, 0.1 mM Na3VO4, 2 mM DTT, 1% DMSO; substrate [^33P]-ATP; reaction time 2 h; end-point measurement.” left out

[8] = test system: MYST2; details: cited from earlier work
[9] = test system: caspase 3/7 activity in HEK293T and MCF7 cells; test: Live-cell caspase 3/7 activity; type: cell-based; details: 24 h after compound addition
Experimental: (§4) For cell growth analyses, cells were seeded in 96-well plates, treated with compounds for the indicated times, and monitored over time in a live cell Incucyte™ ZOOM imager (Essen Biosciences). To label apoptotic and dead cells, caspase 3/7 activatable DEVD recognition motif NucView™ 488 DNA intercalating dye (1:1000 dilution, Essen Biosciences) and SYTOX™ green nucleic acid stain (1:1000 dilution, Invitrogen) were used respectively, following manufacturer instructions.

[10] = test system: HEK293T and MCF7 cells; test: Membrane permeability (SYTOX green uptake); type: cell-based; details: for membrane permeability: Sytox green dead-cell dye uptake
Experimental: as §4

[11] = test system: MOF; parameters: method as in ref 19, 26 (Supplementary References); details: original report; 26 (Supplementary References); cited from earlier work
[12] = target: T2, p300 (Homo sapiens, UniProt Q09472); details: read-out: IC50 (µM), p300; original report; 22 (Supplementary References); cited from earlier work
T2 construct: Reaction Biology Corporation (assays run by this contract lab)
T2 sequence (Q09472 whole entry, species assumed): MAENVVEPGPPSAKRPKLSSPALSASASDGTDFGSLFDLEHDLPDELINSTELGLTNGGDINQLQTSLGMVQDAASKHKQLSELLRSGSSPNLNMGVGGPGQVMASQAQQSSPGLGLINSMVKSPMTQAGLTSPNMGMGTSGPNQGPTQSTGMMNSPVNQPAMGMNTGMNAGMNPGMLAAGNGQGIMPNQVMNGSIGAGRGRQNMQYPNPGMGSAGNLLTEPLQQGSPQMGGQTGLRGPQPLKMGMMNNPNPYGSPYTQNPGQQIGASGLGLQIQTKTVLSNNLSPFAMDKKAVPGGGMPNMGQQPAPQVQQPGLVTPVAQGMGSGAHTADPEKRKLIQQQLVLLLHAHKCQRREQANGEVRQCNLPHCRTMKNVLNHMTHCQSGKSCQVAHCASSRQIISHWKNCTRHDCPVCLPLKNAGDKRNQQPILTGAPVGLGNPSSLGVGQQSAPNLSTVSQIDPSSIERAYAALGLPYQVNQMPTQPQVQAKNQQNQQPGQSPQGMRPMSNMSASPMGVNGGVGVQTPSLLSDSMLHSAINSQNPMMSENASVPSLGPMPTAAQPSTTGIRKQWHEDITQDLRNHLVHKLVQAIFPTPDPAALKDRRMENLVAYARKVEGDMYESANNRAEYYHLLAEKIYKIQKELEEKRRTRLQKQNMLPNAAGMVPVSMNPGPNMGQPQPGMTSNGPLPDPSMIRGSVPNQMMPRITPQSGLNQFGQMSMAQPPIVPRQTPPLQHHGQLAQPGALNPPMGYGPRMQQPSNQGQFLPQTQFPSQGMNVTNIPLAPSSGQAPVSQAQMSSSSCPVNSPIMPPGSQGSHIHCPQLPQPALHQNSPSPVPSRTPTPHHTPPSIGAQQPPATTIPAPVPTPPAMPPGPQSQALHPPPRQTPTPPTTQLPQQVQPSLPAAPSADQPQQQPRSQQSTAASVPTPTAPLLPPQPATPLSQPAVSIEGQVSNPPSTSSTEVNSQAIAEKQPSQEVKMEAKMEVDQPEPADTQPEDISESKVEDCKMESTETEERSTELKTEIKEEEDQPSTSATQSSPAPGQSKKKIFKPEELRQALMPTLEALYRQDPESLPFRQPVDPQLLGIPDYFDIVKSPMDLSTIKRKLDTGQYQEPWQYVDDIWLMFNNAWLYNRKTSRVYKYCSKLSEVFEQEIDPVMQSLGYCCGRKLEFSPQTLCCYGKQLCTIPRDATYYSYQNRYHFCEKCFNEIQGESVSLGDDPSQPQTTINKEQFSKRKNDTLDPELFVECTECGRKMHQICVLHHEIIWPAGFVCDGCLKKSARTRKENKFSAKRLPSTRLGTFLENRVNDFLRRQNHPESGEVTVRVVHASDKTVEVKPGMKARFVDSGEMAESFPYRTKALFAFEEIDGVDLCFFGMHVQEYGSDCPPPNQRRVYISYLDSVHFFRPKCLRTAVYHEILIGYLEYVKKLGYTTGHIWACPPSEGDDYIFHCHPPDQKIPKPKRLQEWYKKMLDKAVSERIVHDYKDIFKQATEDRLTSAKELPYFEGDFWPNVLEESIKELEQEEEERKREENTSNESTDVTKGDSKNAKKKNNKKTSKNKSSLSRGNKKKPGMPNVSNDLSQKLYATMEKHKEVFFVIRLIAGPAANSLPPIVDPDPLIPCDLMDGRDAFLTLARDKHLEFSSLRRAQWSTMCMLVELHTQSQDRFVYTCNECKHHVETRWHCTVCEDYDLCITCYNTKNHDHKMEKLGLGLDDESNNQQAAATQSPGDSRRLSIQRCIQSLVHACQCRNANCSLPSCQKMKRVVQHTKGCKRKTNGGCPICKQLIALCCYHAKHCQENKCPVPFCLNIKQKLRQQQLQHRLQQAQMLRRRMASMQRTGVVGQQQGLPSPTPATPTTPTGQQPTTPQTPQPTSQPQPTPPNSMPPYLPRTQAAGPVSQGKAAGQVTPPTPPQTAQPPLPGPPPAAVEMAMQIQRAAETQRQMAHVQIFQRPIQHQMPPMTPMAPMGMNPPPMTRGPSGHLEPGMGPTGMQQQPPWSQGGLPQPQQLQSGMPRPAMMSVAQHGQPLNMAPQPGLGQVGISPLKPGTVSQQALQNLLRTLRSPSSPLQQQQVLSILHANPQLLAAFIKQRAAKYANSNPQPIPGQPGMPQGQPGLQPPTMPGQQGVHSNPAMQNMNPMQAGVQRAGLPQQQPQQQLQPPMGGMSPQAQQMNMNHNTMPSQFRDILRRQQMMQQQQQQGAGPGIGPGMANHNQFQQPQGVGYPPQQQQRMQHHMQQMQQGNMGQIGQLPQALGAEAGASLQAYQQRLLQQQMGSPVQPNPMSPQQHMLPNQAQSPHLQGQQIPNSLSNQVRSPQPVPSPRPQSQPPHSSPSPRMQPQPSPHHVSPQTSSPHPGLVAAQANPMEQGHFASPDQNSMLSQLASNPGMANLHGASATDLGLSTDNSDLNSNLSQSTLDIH

[13] = test system: MYST4; details: original report; ref 22 (Supplementary References); cited from earlier work
[14] = test system: KAT5; parameters: method as in ref 22 (Supplementary References); details: original report; ref 22 (Supplementary References); cited from earlier work
[15] = test system: HEK293T and MCF7 cells; test: Cell proliferation by cell confluence; type: cell-based; details: 30 µM compound; MCF7 and HEK293T cells
Experimental: as §1, §4

## CC1=NN(c2ccc(C(=O)O)cc2)C(=O)/C1=C/c1ccc(-c2cc(C)c(C)cc2[N+](=O)[O-])o1 [Compound 1, C646]
[1]; @ 10 µM, ref 5 (Supplementary References)
  % inhibition, Rtt109: < 10%
[2]
  cellular H3K27ac levels: decreased
[3]
  kinases with >50% inhibition: 26 out of 200
[4]
  inhibition against the tested kinases and phosphatases: low levels of inhibition
[4]; 17 proteases
  proteases with > 50% inhibition: 7 out of 17
[5]
  % inhibition, MOZ: < 10%
[6]
  % inhibition, SAS: < 10%

## O=c1c2cccnc2sn1Cc1ccc(C(F)(F)F)cc1 [Compound 3, PU141]
[4]; proteases, kinases, phosphatases
  activity vs. most of the targets tested: little activity
[7]
  inhibition of PCAF in the absence of DTT compared with DTT present: notable exceptions

## Cc1cc(O)cc(C)c1C=C1C(=O)N(Cc2ccccc2)C(=O)N(Cc2ccccc2)C1=O [Compound 4, EML425]
[2]
  cellular H3K27ac levels: did not perturb

## COc1ccc(S(=O)(=O)ON=C2C=C(C)C(=O)C(C)=C2)cc1 [Compound 5, L002]
[8]; @ 100 µM, HotSpot, ref 9 (Supplementary References)
  % inhibition, MYST2: 1%
[2]
  cellular H3K27ac levels: decreased
[7]
  inhibition of PCAF in the absence of DTT compared with DTT present: notable exceptions

## O=C1/C(=C/c2ccc(O)c(Br)c2)CCC/C1=C\c1ccc(O)c(Br)c1 [Compound 12, HAT inhibitor II]
[9]
  caspase 3/7 activity: induce; also recorded: dose-dependent increases
[10]
  membrane permeability: increase; also recorded: dose-dependent increases

## CCCCCCCCCCCCCCCc1cccc(O)c1C(=O)O [Compound 14, Anacardic acid]
[2]
  cellular H3K27ac levels: did not perturb

## CCCCCCCc1ccc(CCc2cccc(O)c2C(=O)O)cc1 [Compound 15, MG 149]
[11]
  IC50: 47 µM

## Cc1cc2c(C(C)C)c(O)c(O)c(C=O)c2c(O)c1-c1c(C)cc2c(C(C)C)c(O)c(O)c(C=O)c2c1O [Compound 16, Gossypol]
[12]
  IC50: ~25 µM

## COc1ccc(/C(Cl)=C(/C=O)c2ccc(OC)cc2)cc1 [Compound 18, Windorphen]
[13]
  IC50: > 100 µM
[8]; original report, ref 22 (Supplementary References)
  IC50: > 100 µM
[14]
  IC50: > 100 µM

## CCCC1(c2ccccc2)NC(=O)N(CC(=O)N(C)Cc2c(F)cccc2Cl)C1=O (stereo not shown) [Compound 21, N-[(2-chloro-6-fluorophenyl)methyl]-2-(2,5-dioxo-4-phenyl-4-propylimidazolidin-1-yl)-N-methylacetamide]
[1]; original report, ref 25 (Supplementary References)
  IC50: 0.056 µM

## Plumbagin [Compound 8]
[10]; 30 µM compound, MCF7 cells
  cytotoxicity by membrane integrity studies: cytotoxic
[10]
  membrane permeability: increase; also recorded: dose-dependent increases
[15]
  cell death by cell confluence studies: causes cell death

Reference: publication PMC5688144, “Assay interference and off-target liabilities of reported histone acetyltransferase inhibitors” (Nature Communications, 2017)
